Assay results published in patent publication US6573275B1, “Bicyclic amines” (Syngenta Limited, priority 1995, dated 2003).

System: peach aphid (Myzus persicae)
Experiment: Insecticidal test against peach aphid, infested Chinese cabbage leaves sprayed
Format: in vivo
Details: peach aphid (Myzus persicae) on Chinese cabbage leaves, sprayed with 500 ppm composition unless otherwise stated, mortality assessed after 3 days
In short: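 Aphid-infested Chinese cabbage leaves were sprayed with compound at 500 ppm unless otherwise stated, formulated in acetone/ethanol diluted with water containing 0.05% Synperonic NP8. Mortality was assessed after 3 days.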

| SMILES | Score (grading of mortality) |
| --- | --- |
| N#CC1(c2cncc(Br)c2)CC2CCC(C1)N2Cc1ccccc1Cl (stereo not drawn) [Compound 204] | A (A indicates 80-100% mortality) |
| CC(C)(c1cccc(Cl)c1)N1C2CCC1CC(C#N)(c1cncc(Cl)c1)C2 (stereo not drawn) [Compound 205] | A (A indicates 80-100% mortality) |
| CN1C2CCC1CC(C#N)(c1cncc(C(C)(C)O)c1)C2 (stereo not drawn) [Compound 206] | A (A indicates 80-100% mortality) |
| C#CC(C)(C)N1C2CCC1CC(C#N)(c1cncc(Cl)c1)C2 (stereo not drawn) [Compound 207] | A (A indicates 80-100% mortality) |
| CCOC(=O)N1C2CCC1CC(C#N)(c1cncc(Br)c1)C2 (stereo not drawn) [Compound 208] | A (A indicates 80-100% mortality) |
| CC(C)(N1C2CCC1CC(C#N)(c1cncc(Cl)c1)C2)C(F)(F)F (stereo not drawn) [Compound 209, exo-3-(5-chloropyrid-3-yl)-endo-3-cyano-8-(1,1-dimethyl-2,2,2-trifluoroethyl)-8-azabicyclo[3.2.1]octane] | A (A indicates 80-100% mortality) |
| CC(C)CN1C2CCC1CC(C#N)(c1cncc(Br)c1)C2 (stereo not drawn) [Compound 210] | A (A indicates 80-100% mortality) |
| COc1cncc(C2(C#N)CC3CCC(C2)N3C)n1 (stereo not drawn) [Compound 214] | A (A indicates 80-100% mortality) |
| N#CC(c1cccc(Cl)c1)N1C2CCC1CC(C#N)(c1cncc(Cl)c1)C2 (stereo not drawn) [Compound 215] | A (A indicates 80-100% mortality) |
| C=COC(=O)N1C2CCC1CC(C#N)(c1cncc(-c3ccccc3)c1)C2 (stereo not drawn) [Compound 217, exo-3-(5-phenylpyrid-3-yl)-endo-3-cyano-8-(vinyloxycarbonyl)-8-azabicyclo[3.2.1]octane] | A (A indicates 80-100% mortality) |
| N#CC1(c2cncc(Cl)c2)CC2CCC(C1)N2CCC=C(F)F (stereo not drawn) [Compound 218] | A (A indicates 80-100% mortality) |
| N#CC1(c2cncc(-c3ccccc3)c2)CC2CCC(C1)N2 (stereo not drawn) [Compound 220, exo-3-(5-phenylpyrid-3-yl)-endo-3-cyano-8-azabicyclo[3.2.1]octane] | A (A indicates 80-100% mortality) |
| C=COC(=O)N1C2CCC1CC(C#N)(c1cncc(C)c1)C2 (stereo not drawn) [Compound 221, exo-3-(5-methylpyrid-3-yl)-endo-3-cyano-8-(vinyloxycarbonyl)-8-azabicyclo[3.2.1]octane] | A (A indicates 80-100% mortality) |
| C=COC(=O)N1C2CCC1CC(C#N)(c1cncc(C(=O)OCC)c1)C2 (stereo not drawn) [Compound 222, exo-3-(5-(ethoxycarbonyl)pyrid-3-yl)-endo-3-cyano-8-(vinyloxycarbonyl)-8-azabicyclo[3.2.1]octane] | C (C indicates less than 40% mortality) |
| CC(C)(C#N)N1C2CCC1CC(C#N)(c1cncc(Cl)c1)C2 (stereo not drawn) [Compound 223, exo-3-(5-chloropyrid-3-yl)-endo-3-cyano-8-(2-cyanoprop-2-yl)-8-azabicyclo[3.2.1]octane] | C (C indicates less than 40% mortality) |
| CCOC(=O)c1cncc(C2(C#N)CC3CCC(C2)N3)c1 (stereo not drawn) [Compound 225] | A (A indicates 80-100% mortality) |
| N#CC1(c2cncc(Cl)c2)CC2CCC(C1)N2Cc1cc(C(F)(F)F)cc(C(F)(F)F)c1 (stereo not drawn) [Compound 227] | A (A indicates 80-100% mortality) |
| N#CC1(c2cncc(Cl)c2)CC2CCC(C1)N2Cc1c(F)cccc1F (stereo not drawn) [Compound 228] | A (A indicates 80-100% mortality) |
| N#CC1(c2cncc(Cl)c2)CC2CCC(C1)N2Cc1cccc(Oc2ccccc2)c1 (stereo not drawn) [Compound 229] | A (A indicates 80-100% mortality) |
| N#CC1(c2cncc(Cl)c2)CC2CCC(C1)N2Cc1ccc(F)c(Br)c1 (stereo not drawn) [Compound 230] | A (A indicates 80-100% mortality) |
| N#CC1(c2cncc(Cl)c2)CC2CCC(C1)N2Cc1cccc(C(=O)c2ccccc2)c1 (stereo not drawn) [Compound 231] | A (A indicates 80-100% mortality) |

| SMILES | Score (grading of mortality) |
| --- | --- |
| N#CC1(c2cncc(Cl)c2)CC2CCC(C1)N2Cc1cccc(C(=O)c2c(Cl)cccc2Cl)c1 (stereo not drawn) [Compound 232] | A (A indicates 80-100% mortality) |
| N#CC1(c2cncc(Cl)c2)CC2CCC(C1)N2Cc1cccc(C(=O)c2c(F)cccc2F)c1 (stereo not drawn) [Compound 233] | A (A indicates 80-100% mortality) |
| C=CCc1c(F)c(F)c(CN2C3CCC2CC(C#N)(c2cncc(Cl)c2)C3)c(F)c1F (stereo not drawn) [Compound 234] | A (A indicates 80-100% mortality) |
| N#CC1(c2cncc(Cl)c2)CC2CCC(C1)N2Cc1cccc(OC(F)(F)F)c1 (stereo not drawn) [Compound 235] | A (A indicates 80-100% mortality) |
| N#CC1(c2cncc(Cl)c2)CC2CCC(C1)N2Cc1cccc2ccccc12 (stereo not drawn) [Compound 236] | A (A indicates 80-100% mortality) |
| N#C[C@@]1(c2cncc(Cl)c2)C[C@H]2CC[C@@H](C1)N2Cc1ccccc1 [Compound 237, exo-3-(5-chloropyrid-3-yl)-endo-3-cyano-8-benzyl-8-azabicyclo[3.2.1]octane] | A (A indicates 80-100% mortality) |
| N#CC1(c2cncc(Cl)c2)CC2CCC(C1)N2Cc1ccccc1Br (stereo not drawn) [Compound 238] | A (A indicates 80-100% mortality) |
| Cc1ccccc1CN1C2CCC1CC(C#N)(c1cncc(Cl)c1)C2 (stereo not drawn) [Compound 239] | A (A indicates 80-100% mortality) |
| N#CC1(c2cncc(Cl)c2)CC2CCC(C1)N2Cc1cccc(Br)c1 (stereo not drawn) [Compound 240] | A (A indicates 80-100% mortality) |
| COC(=O)c1cccc(CN2C3CCC2CC(C#N)(c2cncc(Cl)c2)C3)c1 (stereo not drawn) [Compound 241] | A (A indicates 80-100% mortality) |
| Cc1cccc(CN2C3CCC2CC(C#N)(c2cncc(Cl)c2)C3)c1 (stereo not drawn) [Compound 242] | A (A indicates 80-100% mortality) |
| N#CC1(c2cncc(Cl)c2)CC2CCC(C1)N2Cc1ccc(Br)cc1 (stereo not drawn) [Compound 243] | A (A indicates 80-100% mortality) |
| CC(C)(C)C(=O)c1ccc(CN2C3CCC2CC(C#N)(c2cncc(Cl)c2)C3)cc1 (stereo not drawn) [Compound 245] | A (A indicates 80-100% mortality) |
| CC(C)(C)c1ccc(CN2C3CCC2CC(C#N)(c2cncc(Cl)c2)C3)cc1 (stereo not drawn) [Compound 246] | A (A indicates 80-100% mortality) |
| CC(C)c1ccc(CN2C3CCC2CC(C#N)(c2cncc(Cl)c2)C3)cc1 (stereo not drawn) [Compound 247] | A (A indicates 80-100% mortality) |
| Cc1ccc(CN2C3CCC2CC(C#N)(c2cncc(Cl)c2)C3)cc1 (stereo not drawn) [Compound 248] | A (A indicates 80-100% mortality) |
| N#CC1(c2cncc(Cl)c2)CC2CCC(C1)N2Cc1ccc(F)c(F)c1 (stereo not drawn) [Compound 249] | A (A indicates 80-100% mortality) |
| N#CC1(c2cncc(Cl)c2)CC2CCC(C1)N2Cc1ccccc1F (stereo not drawn) [Compound 250] | A (A indicates 80-100% mortality) |
| N#CC1(c2cncc(Cl)c2)CC2CCC(C1)N2Cc1cc(F)cc(Br)c1 (stereo not drawn) [Compound 251] | A (A indicates 80-100% mortality) |
| N#CC1(c2cncc(Cl)c2)CC2CCC(C1)N2Cc1ccc(F)cc1F (stereo not drawn) [Compound 252] | A (A indicates 80-100% mortality) |
| N#CC1(c2cncc(Cl)c2)CC2CCC(C1)N2Cc1cccc(F)c1 (stereo not drawn) [Compound 253] | A (A indicates 80-100% mortality) |
